Source: patent US20250059198A1, “BRM DEGRADING COMPOUNDS AND ASSOCIATED METHODS OF USE” (Arvinas Operations, Inc., priority 2021, published 2025)

Biological target: T1, BRM (Homo sapiens, UniProt P51531)
T1 construct: Western Blot Screen of BRM Degradation in SW1573 Cells; endogenous in cells; host or cells: SW1573 cells
Assay: BRM degradation (Dmax and DC50) in SW1573 cells, Western blot screen / In-Cell Western screen
Type: cell-based
Settings: overnight (18-20 hours) treatment; for Dmax: read-out: Dmax (%)** (% degraded)
Method in brief: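 Dmax and DC50 were derived from BRM levels normalised to an alpha-tubulin control, measured by chemiluminescent Western blotting of lysates or by PFA-fixed In-Cell Western on LI-COR Odyssey. SW1573 cells received compound overnight (18–20 h, 0.1% DMSO final).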

T1 sequence (P51531 whole entry): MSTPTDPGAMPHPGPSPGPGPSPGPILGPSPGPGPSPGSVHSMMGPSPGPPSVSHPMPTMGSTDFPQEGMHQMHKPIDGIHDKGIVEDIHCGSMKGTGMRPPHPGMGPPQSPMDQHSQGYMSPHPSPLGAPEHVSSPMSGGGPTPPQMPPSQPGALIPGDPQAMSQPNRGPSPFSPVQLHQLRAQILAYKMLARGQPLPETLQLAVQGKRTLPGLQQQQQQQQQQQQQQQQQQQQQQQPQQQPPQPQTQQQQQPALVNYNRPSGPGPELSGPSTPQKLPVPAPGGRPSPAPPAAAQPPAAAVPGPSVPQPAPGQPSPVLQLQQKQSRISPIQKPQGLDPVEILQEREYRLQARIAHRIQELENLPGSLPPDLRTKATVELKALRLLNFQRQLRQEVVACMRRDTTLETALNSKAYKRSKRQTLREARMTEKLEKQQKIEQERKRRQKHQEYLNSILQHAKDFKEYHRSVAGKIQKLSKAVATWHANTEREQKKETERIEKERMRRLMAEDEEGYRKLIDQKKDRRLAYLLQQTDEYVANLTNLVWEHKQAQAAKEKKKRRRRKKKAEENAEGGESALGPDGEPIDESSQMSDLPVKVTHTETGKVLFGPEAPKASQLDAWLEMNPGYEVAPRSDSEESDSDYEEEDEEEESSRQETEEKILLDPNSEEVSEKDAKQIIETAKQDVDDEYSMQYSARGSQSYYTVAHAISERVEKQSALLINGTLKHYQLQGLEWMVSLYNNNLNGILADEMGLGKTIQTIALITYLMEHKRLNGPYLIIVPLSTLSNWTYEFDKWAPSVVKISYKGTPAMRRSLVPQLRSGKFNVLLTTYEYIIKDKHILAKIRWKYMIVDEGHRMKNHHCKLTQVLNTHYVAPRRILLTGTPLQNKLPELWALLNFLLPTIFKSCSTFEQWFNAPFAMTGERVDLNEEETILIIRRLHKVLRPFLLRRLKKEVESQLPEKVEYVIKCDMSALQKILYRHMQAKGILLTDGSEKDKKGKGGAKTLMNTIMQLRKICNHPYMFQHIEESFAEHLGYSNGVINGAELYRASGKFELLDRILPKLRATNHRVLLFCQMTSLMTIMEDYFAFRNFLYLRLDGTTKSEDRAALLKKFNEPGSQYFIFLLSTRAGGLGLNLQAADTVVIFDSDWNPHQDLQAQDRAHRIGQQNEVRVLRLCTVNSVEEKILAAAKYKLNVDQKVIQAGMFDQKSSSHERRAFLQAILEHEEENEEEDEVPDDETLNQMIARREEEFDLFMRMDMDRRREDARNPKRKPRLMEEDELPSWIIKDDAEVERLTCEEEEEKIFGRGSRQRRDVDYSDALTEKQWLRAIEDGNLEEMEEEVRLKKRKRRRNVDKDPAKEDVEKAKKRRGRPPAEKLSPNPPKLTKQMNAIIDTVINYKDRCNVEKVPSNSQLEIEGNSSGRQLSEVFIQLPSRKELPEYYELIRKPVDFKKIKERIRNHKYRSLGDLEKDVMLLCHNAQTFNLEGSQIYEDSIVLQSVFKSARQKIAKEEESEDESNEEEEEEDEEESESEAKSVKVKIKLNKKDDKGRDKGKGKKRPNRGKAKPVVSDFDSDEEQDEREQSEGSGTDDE

Row | SMILES | DC50 [nM] | Dmax [%]
1 | Cc1ncsc1-c1ccc([C@H](C)NC(=O)[C@@H]2C[C@@H](O)CN2C(=O)[C@@H](c2cc(N3CCC(CN4CCC(O[C@H]5C[C@H](N6CCC(Cc7cnn(-c8cc(-c9ccccc9O)nnc8N)c7)CC6)C5)CC4)CC3)no2)C(C)C)cc1 [Compound 105, (2S,4R)-4-hydroxy-N-[(1S)-1-[4-(4-methyl-1,3-thiazol-5-yl)phenyl]ethyl]-1-[(2R)-3-methyl-2-{3-[4-({4-[(1r,3r)-3-[4-({1-[3-amino-6-(2-hydroxyphenyl)pyridazin-4-yl]-1H-pyrazol-4-yl}methyl)piperidin-1-yl]cyclobutoxy]piperidin-1-yl}methyl)piperidin-1-yl]-1,2-oxazol-5-yl}butanoyl]pyrrolidine-2-carboxamide] | < 2.5 | > 75
2 | CC(C)[C@@H](C(=O)N1C[C@H](O)C[C@H]1C(=O)N[C@@H](C)c1ccc(-c2ccnn2C)cc1)c1cc(N2CCC(CN3CCC4(CC3)CC(N3CCO[C@@H](CN5C6CCC5CN(c5cc(-c7ccccc7O)nnc5N)C6)C3)C4)CC2)no1 [Compound 106, (2S,4R)-1-[(2R)-2-{3-[4-({2-[(2R)-2-({3-[3-amino-6-(2-hydroxyphenyl)pyridazin-4-yl]-3,8-diazabicyclo[3.2.1]octan-8-yl}methyl)morpholin-4-yl]-7-azaspiro[3.5]nonan-7-yl}methyl)piperidin-1-yl]-1,2-oxazol-5-yl}-3-methylbutanoyl]-4-hydroxy-N-[(1S)-1-[4-(1-methyl-1H-pyrazol-5-yl)phenyl]ethyl]pyrrolidine-2-carboxamide] | < 2.5 | > 75
3 | Cc1ncsc1-c1ccc([C@H](C)NC(=O)[C@@H]2C[C@@H](O)CN2C(=O)[C@@H](c2cc(N3CCN(C(=O)[C@H]4C[C@H](Oc5cc(N6C7CCC6CN(c6cc(-c8ccccc8O)nnc6N)C7)ccn5)C4)CC3)no2)C(C)C)cc1 [Compound 107, (2S,4R)-4-hydroxy-N-[(1S)-1-[4-(4-methyl-1,3-thiazol-5-yl)phenyl]ethyl]-1-[(2R)-3-methyl-2-(3-{4-[(1r,3r)-3-[(4-{3-[3-amino-6-(2-hydroxyphenyl)pyridazin-4-yl]-3,8-diazabicyclo[3.2.1]octan-8-yl}pyridin-2-yl)oxy]cyclobutanecarbonyl]piperazin-1-yl}-1,2-oxazol-5-yl)butanoyl]pyrrolidine-2-carboxamide] | ≥ 30 | 
4 | Cc1ncsc1-c1ccc([C@H](C)NC(=O)[C@@H]2C[C@@H](O)CN2C(=O)[C@@H](c2cc(N3CCC(OC4CCN(C[C@H]5C[C@@H](N6CCO[C@@H](CN7C8CCC7CN(c7cc(-c9ccccc9O)nnc7N)C8)C6)C5)CC4)CC3)no2)C(C)C)cc1 [Compound 108, (2S,4R)-1-((2R)-2-(3-(4-((1-(((1S,3s)-3-((2R)-2-((3-(3-amino-6-(2-hydroxyphenyl)pyridazin-4-yl)-3,8-diazabicyclo[3.2.1]octan-8-yl)methyl)morpholino)cyclobutyl)methyl)piperidin-4-yl)oxy)piperidin-1-yl)isoxazol-5-yl)-3-methylbutanoyl)-4-hydroxy-N-((S)-1-(4-(4-methylthiazol-5-yl)phenyl)ethyl)pyrrolidine-2-carboxamide] | < 2.5 | > 75
5 | CC(C)[C@@H](C(=O)N1C[C@H](O)C[C@H]1C(=O)N[C@@H](C)c1ccc(-c2ccnn2C)cc1)c1cc(N2CCC(OC3CCN(CC4CC(N5CCC([C@@H](C)n6cc(C#Cc7cc(-c8ccccc8O)nnc7N)cn6)CC5)C4)CC3)CC2)no1 (stereo partly drawn) [Compound 110, (2S,4R)-1-[(2R)-2-{3-[4-({1-[(3-{4-[(1R)-1-(4-{2-[3-amino-6-(2-hydroxyphenyl)pyridazin-4-yl]ethynyl}-1H-pyrazol-1-yl)ethyl]piperidin-1-yl}cyclobutyl)methyl]piperidin-4-yl}oxy)piperidin-1-yl]-1,2-oxazol-5-yl}-3-methylbutanoyl]-4-hydroxy-N-[(1S)-1-[4-(1-methyl-1H-pyrazol-5-yl)phenyl]ethyl]pyrrolidine-2-carboxamide] | < 2.5 | > 75

Results, then the molecule that gave them:

Row | DC50 [nM] | Dmax [%] | SMILES
6 | 2.5 to 10 | > 75 | Cc1ncsc1-c1ccc([C@H](C)NC(=O)[C@@H]2C[C@@H](O)CN2C(=O)[C@@H](c2cc(N3CCC(CN4CC[C@@H](OC(=O)N5CCN(c6cc(-c7ccccc7O)nnc6N)CC5)[C@H](F)C4)CC3)no2)C(C)C)cc1 [Compound 102, (3R,4R)-3-fluoro-1-[(1-{5-[(2R)-1-[(2S,4R)-4-hydroxy-2-{[(1S)-1-[4-(4-methyl-1,3-thiazol-5-yl)phenyl]ethyl]carbamoyl}pyrrolidin-1-yl]-3-methyl-1-oxobutan-2-yl]-1,2-oxazol-3-yl}piperidin-4-yl)methyl]piperidin-4-yl 4-[3-amino-6-(2-hydroxyphenyl)pyridazin-4-yl]piperazine-1-carboxylate]
7 | < 2.5 | > 75 | Cc1ncsc1-c1ccc([C@H](C)NC(=O)[C@@H]2C[C@@H](O)CN2C(=O)[C@@H](c2cc(N3CCC(CN4CC[C@H](OC(=O)N5CCN(c6cc(-c7ccccc7O)nnc6N)CC5)[C@H](F)C4)CC3)no2)C(C)C)cc1 [Compound 103, (3R,4S)-3-fluoro-1-[(1-{5-[(2R)-1-[(2S,4R)-4-hydroxy-2-{[(1S)-1-[4-(4-methyl-1,3-thiazol-5-yl)phenyl]ethyl]carbamoyl}pyrrolidin-1-yl]-3-methyl-1-oxobutan-2-yl]-1,2-oxazol-3-yl}piperidin-4-yl)methyl]piperidin-4-yl 4-[3-amino-6-(2-hydroxyphenyl)pyridazin-4-yl]piperazine-1-carboxylate]
8 | < 2.5 | > 75 | Cc1ncsc1-c1ccc([C@H](C)NC(=O)[C@@H]2C[C@@H](O)CN2C(=O)[C@@H](c2cc(N3CCC(CN4CC[C@H](OC(=O)N5CCN(c6cc(-c7ccccc7O)nnc6N)CC5)[C@@H](F)C4)CC3)no2)C(C)C)cc1 [Compound 104, (3S,4S)-3-fluoro-1-[(1-{5-[(2R)-1-[(2S,4R)-4-hydroxy-2-{[(1S)-1-[4-(4-methyl-1,3-thiazol-5-yl)phenyl]ethyl]carbamoyl}pyrrolidin-1-yl]-3-methyl-1-oxobutan-2-yl]-1,2-oxazol-3-yl}piperidin-4-yl)methyl]piperidin-4-yl 4-[3-amino-6-(2-hydroxyphenyl)pyridazin-4-yl]piperazine-1-carboxylate]
9 | ≥ 30 |  | CC(C)[C@H](C(=O)N1C[C@H](O)C[C@H]1C(=O)N[C@@H](C)c1ccc(-c2ccnn2C)cc1)c1cc(N2CCC(OC3CCN(CC4CC(N5CCC([C@@H](C)n6cc(C#Cc7cc(-c8ccccc8O)nnc7N)cn6)CC5)C4)CC3)CC2)no1 (stereo partly drawn) [Compound 109, (2S,4R)-1-[(2S)-2-{3-[4-({1-[(3-{4-[(1R)-1-(4-{2-[3-amino-6-(2-hydroxyphenyl)pyridazin-4-yl]ethynyl}-1H-pyrazol-1-yl)ethyl]piperidin-1-yl}cyclobutyl)methyl]piperidin-4-yl}oxy)piperidin-1-yl]-1,2-oxazol-5-yl}-3-methylbutanoyl]-4-hydroxy-N-[(1S)-1-[4-(1-methyl-1H-pyrazol-5-yl)phenyl]ethyl]pyrrolidine-2-carboxamide]
